Source: patent US6156757A, “1,2,3,4-tetrahydro-benzofuro[3,2-C]pyridine derivatives” (Janssen Pharmaceutica N.V., priority 1997, dated 2000)

Columns and labels:
α2 -adrenoceptor = experiment: Xylazine-induced loss of righting reflex in rats; type: in vivo; conditions: one hour before xylazine 15 mg/kg i.v., male rats, lowest tested dose at which at least 66% of animals showed no loss of righting reflex
Description: This test is based upon the fact that centrally acting α2 -adrenoceptor antagonists reverse the loss of righting reflex induced by an intravenous injection of the α2 agonist xylazine. One hour before injection of xylazine (15 mg/kg, i.v.), male rats (200-250 g) were pretreated with a test compound (er os (p.o.) or subcutaneously (s.c.)) or solvent.

[1] = biological target: T1, cloned human α2C receptors (Homo sapiens, UniProt P18825); experiment: In vitro binding affinity for α2C receptors (3H-rauwolscine competition binding); conditions: at a test concentration of 10^-8 M or less; CHO cell expressing cloned human α2C receptors
T1 construct: expressed in transfected cells; host or cells: CHO cells
T1 sequence (P18825 1-462): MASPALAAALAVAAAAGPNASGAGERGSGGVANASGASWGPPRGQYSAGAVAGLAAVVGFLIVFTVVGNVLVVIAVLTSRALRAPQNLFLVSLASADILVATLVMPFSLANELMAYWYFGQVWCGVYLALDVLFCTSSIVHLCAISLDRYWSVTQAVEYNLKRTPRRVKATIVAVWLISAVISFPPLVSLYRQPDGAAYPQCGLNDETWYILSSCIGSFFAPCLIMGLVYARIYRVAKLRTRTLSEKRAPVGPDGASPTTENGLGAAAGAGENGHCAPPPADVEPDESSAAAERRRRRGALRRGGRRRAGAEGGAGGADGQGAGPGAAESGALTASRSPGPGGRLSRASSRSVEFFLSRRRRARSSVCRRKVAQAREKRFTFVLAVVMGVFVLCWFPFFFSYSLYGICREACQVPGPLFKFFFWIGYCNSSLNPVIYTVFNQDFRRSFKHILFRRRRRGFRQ

[2] = biological target: T2, cloned human α2B receptors (Homo sapiens, UniProt P18089); experiment: In vitro binding affinity for α2B receptors (3H-rauwolscine competition binding); conditions: at a test concentration of 10^-8 M or less; CHO cell expressing cloned human α2B receptors
T2 construct: expressed in transfected cells; host or cells: CHO cells
T2 sequence (P18089 1-450): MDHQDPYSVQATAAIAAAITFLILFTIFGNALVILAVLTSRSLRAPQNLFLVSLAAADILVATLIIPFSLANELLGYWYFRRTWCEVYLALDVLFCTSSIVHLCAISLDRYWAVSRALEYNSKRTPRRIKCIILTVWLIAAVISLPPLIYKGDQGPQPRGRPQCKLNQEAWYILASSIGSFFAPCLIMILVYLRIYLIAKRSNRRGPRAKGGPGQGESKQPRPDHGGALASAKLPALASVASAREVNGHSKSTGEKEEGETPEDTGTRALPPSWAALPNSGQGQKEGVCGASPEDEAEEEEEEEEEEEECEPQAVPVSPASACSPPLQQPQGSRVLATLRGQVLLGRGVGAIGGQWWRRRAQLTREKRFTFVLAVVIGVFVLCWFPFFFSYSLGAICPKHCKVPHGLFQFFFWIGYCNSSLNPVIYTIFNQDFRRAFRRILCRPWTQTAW
Description: (§1) The interaction of the compounds of formula (I) with α2 receptors was assessed in in vitro radioligand binding experiments.
(§2) In general, a low concentration of a radioligand with a high binding affinity for a particular receptor is incubated with a sample of a tissue preparation enriched in a particular receptor or with a preparation of cells expressing cloned human receptors in a buffered medium. During the incubation, the radioligand binds to the receptor. When equilibrium of binding is reached, the receptor bound radioactivity is separated from the non-bound radioactivity, and the receptor bound activity is counted. The interaction of the test compounds with the receptor is assessed in competition binding experiments. Various concentrations of the test compound are added to the incubation mixture containing the receptor preparation and the radioligand. Binding of the radioligand will be inhibited by the test compound in proportion to its binding affinity and its concentration.
The radioligand used for α2B receptor binding is ^3 H-rauwolscine and the receptor preparation used is the CHO cell expressing cloned human α2B receptors.

[3] = biological target: T3, cloned human α2A receptors (Homo sapiens, UniProt P08913); experiment: In vitro binding affinity for α2A receptors (3H-rauwolscine competition binding); conditions: at a test concentration of 10^-8 M or less; CHO cell expressing cloned human α2A receptors
T3 sequence (P08913 1-465): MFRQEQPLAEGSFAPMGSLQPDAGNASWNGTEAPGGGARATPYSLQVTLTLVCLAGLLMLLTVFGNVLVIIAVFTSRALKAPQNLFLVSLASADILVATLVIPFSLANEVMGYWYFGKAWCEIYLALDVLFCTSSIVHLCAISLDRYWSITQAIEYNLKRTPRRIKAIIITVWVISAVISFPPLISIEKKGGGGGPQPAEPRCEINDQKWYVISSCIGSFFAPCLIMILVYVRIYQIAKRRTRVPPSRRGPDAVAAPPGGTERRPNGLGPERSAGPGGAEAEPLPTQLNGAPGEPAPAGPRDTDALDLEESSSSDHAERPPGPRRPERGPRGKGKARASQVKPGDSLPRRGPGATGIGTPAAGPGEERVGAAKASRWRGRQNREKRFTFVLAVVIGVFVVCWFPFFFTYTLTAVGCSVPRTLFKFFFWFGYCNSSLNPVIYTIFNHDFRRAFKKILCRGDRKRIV
Description: as §1, §2
The radioligand used for α2A receptor binding is ^3 H-rauwolscine and the receptor preparation used is the Chinese Hamster Ovary (CHO) cell expressing cloned human α2A receptors.

| inhibition at up to 0.01 µM [1] [%] | inhibition at up to 0.01 µM [2] [%] | inhibition [3] [%] | SMILES | LAD in mg/kg (lowest active dose for xylazine antagonism) (α2 -adrenoceptor; s.c.) [mg/kg] | LAD in mg/kg (lowest active dose for xylazine antagonism) (α2 -adrenoceptor; p.o.) [mg/kg] |
| --- | --- | --- | --- | --- | --- |
| > 50 | > 50 | > 50 | O=c1c(CCN2CCc3oc4ccccc4c3C2)c(-c2ccccc2)nc2n1CCCC2 [Compound 10] | 10.00 |  |
|  | > 50 |  | Cc1nc2n(C)c(C)cn2c(=O)c1CCN1CCc2oc3ccccc3c2C1 [Compound 30] | 2.50 |  |
|  | > 50 |  | Cc1nc2ccc(Br)cn2c(=O)c1CCN1CCc2oc3ccccc3c2C1 [Compound 31] | 0.16 |  |
| > 50 | > 50 | > 50 | Cc1nc2c(C)cccn2c(=O)c1CCN1CCc2oc3ccccc3c2C1 [Compound 33] | 10.00 |  |
| > 50 | > 50 | > 50 | O=c1[nH]c2ccccc2n1CCN1CCc2oc3ccccc3c2C1 [Compound 52] | 10.00 |  |
| > 50 | > 50 | > 50 | O=c1[nH]c2ccccc2n1CCCN1CCc2oc3ccccc3c2C1 [Compound 53] |  |  |
|  | > 50 |  | CSc1nc(C)c(CCN2CCc3oc4ccccc4c3C2)c(=O)n1C [Compound 56] |  |  |
| > 50 | > 50 | > 50 | Cc1nc2sc3ccccc3n2c(=O)c1CCN1CCc2oc3ccccc3c2C1 [Compound 62] |  | 10.00 |
| > 50 | > 50 | > 50 | O=c1[nH]c2ccccc2c(=O)n1CCCCN1CCc2oc3ccccc3c2C1 [Compound 63] |  |  |
| > 50 | > 50 | > 50 | Cc1nc2ccccn2c(=O)c1CCN1CCc2oc3ccccc3c2C1 [Compound 66] | 0.63 |  |
